24 molecules from PubChem BioAssay (NCI) can be followed below.

Common to all, as to assay: NCI-60 cell line screen, 48 h
The test system of assay [1] is SF-539 CNS.
Assay [2] deals with U251 CNS.
Assay [3] relates to MALME-3M melanoma.
In assay [4] the test system is KM12 colon.
Assay [5] relates to PC-3 prostate.
The test system of assay [6] is SK-MEL-2 melanoma.
Assay [7] deals with UACC-62 melanoma.
The subject of assay [8] is HS 578T breast.
Assay [9] deals with UO-31 renal.
For assay [10], the system named is T-47D breast.

Structures are written as SMILES.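 Cultured in 96-well plates, cells were exposed to test compound for 48 hours across five concentrations. Here, GI50 denotes the concentration required for 50% inhibition of growth. Definition used: TGI = concentration required for complete inhibition of growth.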 Where only a bound is given, the exact number is not on record here.

For `COc1ccc(OC)c(NCC(=O)Nn2cnc3ccc(S(=O)(=O)Nc4cc(OC)ccc4OC)cc3c2=O)c1`, the TGI in [1], in assay [2], in [3], in assay [4], in assay [5] and in assay [6] was > 100 µM each time. Also, the TGI in [7], in [8] and in assay [9] was > 100 µM in each case.

For `CC1CN=C(NS(=O)(=O)c2cc(C(=O)Nc3ccc(Cl)cc3)c(Cl)cc2S)NN1` (stereo not given), the TGI in assay [1] was 81.8 µM; in [2] it was > 100 µM; in assay [3], 39.1 µM; in assay [4], 97.1 µM; in assay [5] it was 94 µM; in assay [6], 71.2 µM. Further, the TGI in assay [7] was 84.1 µM; in [9], > 100 µM.

For `Cc1c[n+]2c3ccccc3c3ccccc3c2s1`, the TGI is 16.6 µM in assay [1]; 12.3 µM in assay [2]; 7.87 µM in assay [3]; 9.4 µM in [4]; 25.7 µM in [6]; > 47.1 µM in assay [7]. The molecule also had a TGI in [9] of 14.5 µM.

Take `C=CCNC(=S)N1CC(C)C(=O)Nc2cc(Cl)ccc21` (stereo not given): the TGI in [1], in assay [2], in [3], in assay [4], in assay [6] and in assay [7] was > 100 µM in each case. The TGI in assay [9] is > 100 µM.

On to `COc1cc(C2c3cc4c(cc3[C@@H](Nc3cccc(CO)c3)C3COC(=O)[C@H]23)OCO4)cc(OC)c1O` (stereo not given in full), for which the TGI is 1.99 µM in assay [1]; 11.4 µM in assay [3]; 6.67 µM in assay [4]; 6.2 µM in assay [6]; 2.76 µM in assay [7]; 10.4 µM in assay [9].

For the molecule `O=P1(c2ccccc2)c2ccccc2-c2ccccc21`, the TGI in assay [1], in [4], in [5], in assay [6], in assay [7] and in assay [8] was > 100 µM throughout. In addition, the TGI in [9] was > 100 µM.

With `CN(CC(=O)O)c1ncc2c(n1)C=CCC2`, the TGI in assay [1], in [2], in [3], in assay [4], in assay [5] and in assay [6] was > 100 µM throughout. For the same molecule, the TGI in assay [7], in assay [8] and in [9] was > 100 µM throughout.

For the molecule `CC12C3C4C1C1C2C3C41CO` (stereo not given), the TGI in [1], in assay [2], in assay [4], in [6], in [7] and in assay [9] was > 100 µM throughout.

Take `COc1ccc(C2=NN(c3ccccc3)C[N+](c3ccc(C)cc3)=N2)cc1`: the TGI is 45.3 µM in [2], > 100 µM in assay [3], > 10 µM in assay [4] and > 100 µM in assay [9].

As to `CSC1NC(c2ccccc2)=C(C#N)C(=O)N1C1OCC(OC(C)=O)C(OC(C)=O)C1OC(C)=O` (stereo not given), the TGI in [1], in [2], in assay [3], in assay [4], in assay [5] and in [7] was > 100 µM each time. In addition, the TGI in assay [8] and in assay [9] was > 100 µM throughout.

As for `O=c1[nH]nc(NCc2ccccc2)c2nnn(Cc3ccccc3)c12`, the TGI in assay [2], in assay [3], in assay [4], in assay [5], in [6] and in assay [9] was > 100 µM throughout.

In the case of `Cc1[nH]c(=O)[nH]c(=O)c1/C=C/C(=O)O` (tested in a mixture with another compound), the TGI in assay [1], in [2], in assay [3], in [4], in assay [6] and in assay [7] was > 625 µM in each case. Also, the TGI in [9] is > 625 µM.

On to `COc1cc2c3cc1Oc1c(O)c(OC)cc4c1C(Cc1ccc(O)c(c1)Oc1ccc(cc1)CC3N(C)CC2)N(C)CC4` (stereo not given), for which the TGI in assay [1] was 5.8 µM; in [2], 27.3 µM; in assay [3] it was 32.8 µM; in [4] it was 23.6 µM; in assay [6] it was 38.4 µM; in assay [7], 42.9 µM. For the same molecule, the TGI in assay [9] worked out at 29.3 µM.

Take `Cc1cc(S(=O)(=O)N2CCNNC2=O)c(S)cc1Cl`: the TGI is > 100 µM in assay [1]; > 100 µM in assay [2]; 46.2 µM in [3]; > 100 µM in [4]; > 100 µM in assay [5]; > 100 µM in assay [6]. The TGI in assay [7], in assay [8] and in assay [9] was > 100 µM throughout.

With `COc1ccccc1Cc1ccc(C2C=CC3(CC(=O)C=C3C)C(=O)C2)o1` (stereo not given), the TGI in assay [1] is 42.9 µM; in assay [2], 30.6 µM; in assay [3], 47.5 µM; in [4], > 100 µM; in assay [5], 38.3 µM; in assay [6], 30.8 µM. For the same molecule, the TGI in assay [7] is 31.8 µM; in assay [8], 68.7 µM; in assay [9] it was > 100 µM.

In the case of `O=C1C=CC2OC(c3ccccc3)C(O)C2O1` (stereo not given), the TGI in assay [1] stood at 14.1 µM; in [2], 22.4 µM; in assay [3], 11.3 µM; in [4] it was 17.3 µM; in assay [6] it was 6.63 µM; in assay [7], 20.9 µM. Further, in [9], the TGI is 21.1 µM.

As to `COc1cc(C2C3=C(COC3=O)Oc3cc4c(cc32)OCO4)ccc1O` (stereo not given), the TGI in assay [1] is 1.03 µM; in [2], > 100 µM; in assay [10], > 100 µM; in assay [4] it was > 100 µM; in assay [5] it was > 83.2 µM; in assay [6], > 100 µM. In addition, the TGI in assay [7] is > 100 µM.

For `N#CCc1c(-c2ccccc2)n(S(=O)(=O)c2ccccc2)c2ccccc12`, the TGI in assay [1], in [2], in [3], in [4], in assay [6] and in [7] was > 100 µM in each case. Besides, in assay [9], the TGI is > 100 µM.

As for `COc1cc(OC)cc(-c2ccc(-c3ccc(C(=N)N)cn3)o2)c1`, the GI50 was 1.55 µM in assay [1]; 1.62 µM in assay [2]; 1.82 µM in assay [3]; 1.78 µM in assay [4]; 1.65 µM in assay [5]; 2.01 µM in assay [6]. Besides, the GI50 in assay [7] was 1.77 µM; in [8] it was 1.66 µM; in assay [9], 1.59 µM. In addition, the TGI was determined as 2.9 µM in assay [1]; 3.02 µM in assay [2]; 3.49 µM in [3]; 3.34 µM in assay [4]; 3.14 µM in [5]; 3.72 µM in assay [6]. Moreover, the TGI in assay [7] stood at 3.29 µM; in assay [8], 3.58 µM; in [9] it was 3.06 µM.

For the molecule `N#CC(N=Nc1ccccc1C(=O)O)C(N)=O` (stereo not given), the TGI in assay [2], in assay [10], in assay [3], in assay [4], in [5] and in assay [6] was > 100 µM each time. The TGI in [7] and in assay [9] was > 100 µM each time.

As to `O=C(CN(C(=O)OC12CC3CC(CC(C3)C1)C2)C(=O)OC12CC3CC(CC(C3)C1)C2)Oc1ccc([N+](=O)[O-])cc1`, the TGI in [1], in assay [2], in [3], in [4], in assay [5] and in assay [7] was > 100 µM each time. Besides, the TGI in assay [8] and in assay [9] was > 100 µM throughout.

For the molecule `CCC(C)C(N)C(=O)NC(CC(N)=O)C(=O)NC(CC(C)C)C(=O)NC(CCCCN)C(=O)NC(C)C(=O)NC(CC(C)C)C(=O)NC(C)C(=O)NC(C)C(=O)NC(CC(C)C)C(=O)NC(C)C(=O)NC(CCCCN)C(=O)NC(CCCCN)C(=O)NC(C(=O)NC(CC(C)C)C(N)=O)C(C)CC` (stereo not given), the TGI in assay [1] was found to be 11.3 µM; in [2], 30.9 µM; in assay [3], 10.7 µM; in assay [4], 29.5 µM; in [6], 36.8 µM; in assay [7] it was 13.8 µM. Also, the TGI in [9] stood at 32.1 µM.

Turning to `Clc1cccc(-c2sc(-c3ccsc3)cc2Cc2ccsc2)c1`, the TGI in assay [10], in [3], in assay [4], in assay [5] and in [7] was > 10 µM throughout.

Take `CC(=O)Nc1ccc2nc(-c3ccccn3)c(-c3ccccn3)nc2c1`: the TGI in [1], in [2], in [3], in assay [4], in assay [5] and in assay [6] was > 100 µM throughout. The TGI in assay [7], in assay [8] and in assay [9] was > 100 µM in each case.
